{"source": "paper PMC7789494", "about": "(Microbial Cell Factories, 2021)", "target": "T1, PcCDHTr (Phanerodontia chrysosporium, UniProt Q01738)", "T1 construct": "gene CDH-1; full two-domain flavocytochrome, native signal peptide (cleaved), untagged, secreted by Trichoderma reesei delta-xyr1; 83 kDa by SDS-PAGE", "T1 sequence (Q01738 19-773)": "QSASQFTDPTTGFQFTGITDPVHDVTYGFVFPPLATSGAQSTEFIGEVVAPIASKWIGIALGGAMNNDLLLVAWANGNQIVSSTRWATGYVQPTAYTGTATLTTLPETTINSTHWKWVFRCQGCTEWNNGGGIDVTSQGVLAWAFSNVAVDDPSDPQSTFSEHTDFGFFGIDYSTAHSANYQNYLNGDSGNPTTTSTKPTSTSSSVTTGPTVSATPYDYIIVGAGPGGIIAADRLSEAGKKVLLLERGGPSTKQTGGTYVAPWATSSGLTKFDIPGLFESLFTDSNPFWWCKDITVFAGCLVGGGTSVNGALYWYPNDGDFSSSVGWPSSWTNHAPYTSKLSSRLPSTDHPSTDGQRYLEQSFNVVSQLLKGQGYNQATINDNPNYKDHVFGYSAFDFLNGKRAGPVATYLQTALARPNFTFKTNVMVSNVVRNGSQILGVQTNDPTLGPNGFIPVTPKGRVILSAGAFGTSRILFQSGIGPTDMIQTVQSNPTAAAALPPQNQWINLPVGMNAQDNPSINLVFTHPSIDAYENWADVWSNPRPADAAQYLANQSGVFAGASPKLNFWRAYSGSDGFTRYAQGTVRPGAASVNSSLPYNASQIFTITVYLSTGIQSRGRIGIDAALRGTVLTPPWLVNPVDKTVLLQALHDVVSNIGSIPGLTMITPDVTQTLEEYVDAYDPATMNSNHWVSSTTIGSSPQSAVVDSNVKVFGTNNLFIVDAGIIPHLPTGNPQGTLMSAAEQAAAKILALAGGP", "assay": "TCA precipitation, released FAD by A450", "assay_type": "binding", "details": "co-purified cofactor"}
{"smiles": "Cc1cc2nc3c(=O)[nH]c(=O)nc-3n(C[C@H](O)[C@H](O)[C@H](O)COP(=O)(O)OP(=O)(O)OC[C@H]3O[C@@H](n4cnc5c(N)ncnc54)[C@H](O)[C@@H]3O)c2cc1C", "note": "[FAD]", "values": [{"measurement": "FAD occupancy", "value": 70, "unit": "%"}]}
